Source: patent US6984646B2, “Imidazopyridinones as p38 map kinase inhibitors” (Bayer Healhcare AG, priority 2001, dated 2006)

These molecules were tested against p38 map kinase (Homo sapiens, UniProt Q16539) (assay: P38 map kinase assay (SPA)). Conditions: SPA [33-P] assay, biotinylated myelin basic protein substrate 2.5 μM, 10 μM ATP, 90 min 30° C.
Assay type: biochemical
Description: The assay makes use of the serine/threonine protein kinase SPA [33-P]+assay kit from Amersham Pharmacia Biotech. The assay is a homogeneous technique using SPA technology for the quantification of serine threonine kinase activity.
It is based on the p38 map kinase catalysed transfer of the γ-phosphate group of the [γ-^33P] ATP to the substrate, biotinylated myelin basic protein (MBP). The resulting [^33P]-labelled biotinylated product is trapped on a PVT SPA bead containing scintillant which has been surface coated with streptavidin.
The beads are allowed to settle to eliminate high background, and therefore only ^33P labelled product attached to the SPA bead is detected.
The assay is carried out in the presence and absence of test compounds to determine their effect on p38 map kinase activity.
A Test Protocol is as Follows:
• 1. SPA assay kit (Amersham). Components: • Assay buffer (store frozen) • Stop solution (store frozen) • Streptavidin coated SPA beads—reconstitute with 5 mls of PBS. (50 mg/ml). (Store in fridge) • 2. p38 map kinase enzyme SCRD (500 μg/ml)−aliquoted in 1.5 mls. • dilute 1:10 to 50 μg/ml • 1 plate: −110 μl (stock 500 μg/ml)+[…] PBS. • 3. Assay reagent: • for 1 plate: −504 μl Assay buffer (500 Mm MOPS pH7.2, 10 μM ATP, • 50 mM MgCl2, 25 μM biotinylated myelin basic protein (MBP)). • 2513.4 μl Water • 1.1 μl 33-p-ATP ([…]) (on activity date/adjust for activity date) • 4.534 μl×10^-2M ATP in water • 4. Stop solution: • for 1 plate: −265.92 μl streptavidin coated beads (50 mg/ml) • 1651.68 μl stop buffer (500 μM ATP, 50 mM EDTA 1% Triton X-100) • 7084.32 μl PBS. • 1. Add 10 μcompound Dilutions (5× final conc) Test wells. • 2. Add 10 μl 12.5% DMSO to control/blank wells. • 3. Add 10 μl enzyme (50 μg/ml)−final conc 500 ng/well • 4. Add 10 μPBS to blank wells. • 5. Add 30 μL of assay reagent to each well. (final conc 10 μM ATP, 2.5 μM substrate) • 6. Mix well on plate shaker • 7. Incubate 90 min (30° C.) • 8. Add 75 μl of stop solution to each well (final conc 55 μM ATP) • 9. Spin plate: −3 min/1600 rpm/20° C. (alternatively leave to settle overnight) • 10. Read in Microbeta, Protocol SPA paralux 3.

p38 map kinase, sequence (Q16539 whole entry): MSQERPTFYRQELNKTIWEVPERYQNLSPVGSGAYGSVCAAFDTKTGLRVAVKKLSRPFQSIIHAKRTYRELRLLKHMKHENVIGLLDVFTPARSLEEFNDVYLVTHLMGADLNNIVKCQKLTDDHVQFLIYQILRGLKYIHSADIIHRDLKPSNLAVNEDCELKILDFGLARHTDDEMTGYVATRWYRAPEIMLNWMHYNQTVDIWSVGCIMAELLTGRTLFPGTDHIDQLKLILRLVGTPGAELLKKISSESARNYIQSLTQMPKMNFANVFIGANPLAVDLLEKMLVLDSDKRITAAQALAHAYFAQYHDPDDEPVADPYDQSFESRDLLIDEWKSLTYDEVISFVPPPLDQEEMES

IC50 [nM]	Compound
111	O=C(c1ccccc1)c1ccc(=O)n2c3c([nH]c12)CCCC3 [Example 5, 4-Benzoyl-6,7,8,9-tetrahydropyrido[1,2-a]benzimidazol-1(5H)-one]
96	O=C(c1ccc(F)cc1F)c1ccc(=O)n2c3c([nH]c12)CCCC3 [Example 38, 4-(2,4-Difluorobenzoyl)-6,7,8,9-tetrahydropyrido[1,2-a]benzimidazol-1(51)-one]
518	O=C(c1ccccc1)c1ccc(=O)n2c1[nH]c1ccccc12 [Example 1, 4-Benzoylpyrido[1,2-a]benzimidazol-1(5H)-one]
235	Cc1[nH]c2c(C(=O)c3ccccc3F)ccc(=O)n2c1C [Example 3, 8-(2-Fluorbenzoyl)-2,3-dimethylimidazo[1,2-a]pyridin-5(1H)-one]
329	Cc1[nH]c2c(C(=O)c3ccc(F)cc3)ccc(=O)n2c1C [Example 2, 8-(4-Fluorobenzoyl)-2,3-dimethylimidazo[1,2-a]pyridin-5(1H)-one]
